According to article PMC3922309, “Differential roles of tryptophan residues in conformational stability of Porphyromonas gingivalis HmuY hemophore” (BMC Biochemistry, 2014):

Experiments:
[1] = target: HmuY (Porphyromonas gingivalis, UniProt A2BCY8, W161A); test: biochemical
[2] = target: HmuY (Porphyromonas gingivalis, UniProt A2BCY8, W73Y); test: biochemical
[3] = target: HmuY (Porphyromonas gingivalis, UniProt A2BCY8, W161Y); test: biochemical
[4] = target: T1, HmuY (Porphyromonas gingivalis, UniProt A2BCY8); test: heme titration of apoprotein (UV-visible / Trp fluorescence quenching), one-site model; format: binding
T1 construct: polypeptide lacking the first 25 residues, plasmid pHmuY11, expressed in Escherichia coli ER2566, purified from soluble lysate
T1 sequence (A2BCY8 entry or part of it): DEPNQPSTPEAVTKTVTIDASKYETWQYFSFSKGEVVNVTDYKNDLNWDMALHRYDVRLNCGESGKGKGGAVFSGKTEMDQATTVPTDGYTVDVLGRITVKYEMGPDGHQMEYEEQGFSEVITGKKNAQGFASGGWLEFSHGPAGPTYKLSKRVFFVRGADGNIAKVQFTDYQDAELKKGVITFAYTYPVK

[5] = target: HmuY (Porphyromonas gingivalis, UniProt A2BCY8, W51A); test: biochemical
HmuY (Porphyromonas gingivalis, UniProt A2BCY8, W51A), sequence (A2BCY8 26-216 W51A): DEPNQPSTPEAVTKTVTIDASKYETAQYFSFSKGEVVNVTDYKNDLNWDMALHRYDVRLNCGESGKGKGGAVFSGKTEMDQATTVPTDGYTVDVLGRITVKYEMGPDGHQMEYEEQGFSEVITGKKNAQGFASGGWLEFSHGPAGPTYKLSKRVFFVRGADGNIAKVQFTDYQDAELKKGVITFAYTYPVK

[6] = target: HmuY (Porphyromonas gingivalis, UniProt A2BCY8, W51Y); test: biochemical
HmuY (Porphyromonas gingivalis, UniProt A2BCY8, W51Y), sequence (A2BCY8 26-216 W51Y): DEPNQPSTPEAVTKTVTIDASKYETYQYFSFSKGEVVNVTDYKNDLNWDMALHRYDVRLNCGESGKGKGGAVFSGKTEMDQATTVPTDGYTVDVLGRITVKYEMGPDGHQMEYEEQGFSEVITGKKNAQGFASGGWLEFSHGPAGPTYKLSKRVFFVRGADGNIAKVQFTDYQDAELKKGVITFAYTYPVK

[7] = target: HmuY (Porphyromonas gingivalis, UniProt A2BCY8, W73A); test: biochemical
HmuY (Porphyromonas gingivalis, UniProt A2BCY8, W73A), sequence (A2BCY8 26-216 W73A): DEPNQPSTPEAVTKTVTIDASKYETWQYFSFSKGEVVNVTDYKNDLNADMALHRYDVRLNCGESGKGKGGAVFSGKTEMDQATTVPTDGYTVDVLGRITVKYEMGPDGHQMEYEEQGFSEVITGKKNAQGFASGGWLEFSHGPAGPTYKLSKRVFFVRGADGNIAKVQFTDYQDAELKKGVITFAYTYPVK

HmuY (Porphyromonas gingivalis, UniProt A2BCY8, W161Y), sequence (A2BCY8 26-216 W161Y): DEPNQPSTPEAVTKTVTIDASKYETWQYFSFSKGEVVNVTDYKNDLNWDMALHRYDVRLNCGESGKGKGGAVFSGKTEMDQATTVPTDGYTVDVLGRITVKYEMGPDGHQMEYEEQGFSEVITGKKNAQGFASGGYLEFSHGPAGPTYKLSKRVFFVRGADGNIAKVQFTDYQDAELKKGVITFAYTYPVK
HmuY (Porphyromonas gingivalis, UniProt A2BCY8, W73Y), sequence (A2BCY8 26-216 W73Y): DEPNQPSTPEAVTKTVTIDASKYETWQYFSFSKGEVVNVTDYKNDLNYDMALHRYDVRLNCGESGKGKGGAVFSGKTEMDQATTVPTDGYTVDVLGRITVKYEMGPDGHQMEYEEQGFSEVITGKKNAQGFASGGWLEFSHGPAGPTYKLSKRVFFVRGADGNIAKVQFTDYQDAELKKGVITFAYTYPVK
HmuY (Porphyromonas gingivalis, UniProt A2BCY8, W161A), sequence (A2BCY8 26-216 W161A): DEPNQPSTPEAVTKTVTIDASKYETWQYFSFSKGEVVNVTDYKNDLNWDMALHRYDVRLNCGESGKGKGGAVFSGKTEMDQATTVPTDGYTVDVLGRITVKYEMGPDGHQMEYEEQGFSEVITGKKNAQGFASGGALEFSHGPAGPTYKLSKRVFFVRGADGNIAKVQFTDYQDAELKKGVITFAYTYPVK

C=CC1=C(C)C2=Cc3c(C=C)c(C)c4[n]3[Fe]([Cl])[n]3c(c(C)c(CCC(=O)O)c3=CC3=NC(=C4)C(C)=C3CCC(=O)O)=CC1=N2 [heme]
Kd [1]: 323 ± 16 nM
Kd [2]: 238 ± 12 nM
Kd [3]: 235 ± 11 nM
Kd [4]: 296 ± 12 nM
Kd [5]: 303 ± 13 nM
Kd [6]: 216 ± 7 nM
Kd [7]: 229 ± 8 nM
